These results are taken from ChEMBL document CHEMBL5465560, “Selectivity Literature for EUbOPEN Chemogenomic Library” (2024).

Assay [1] addresses Serine/threonine-protein kinase B-raf (Homo sapiens) (UniProt P15056). Description: (§1) Selectivity interaction (Kinase panel (Z-LYTE Assay)) EUB0001632a BRAF. As to conditions: at 10 µM.
Assay [2] relates to Serine/threonine-protein kinase B-raf (Homo sapiens), P15056 [V600E]. Described as §1. Conditions: at 10 µM.
Assay [3] deals with Casein kinase II subunit alpha' (Homo sapiens) (UniProt P19784). Kind of assay: Selectivity interaction (KinomeScan (DiscoverX)) EUB0000607a CSNK2A2. Conditions: at 10 µM.
Chain of Casein kinase II subunit alpha' (Homo sapiens) (P19784 whole entry, looked up): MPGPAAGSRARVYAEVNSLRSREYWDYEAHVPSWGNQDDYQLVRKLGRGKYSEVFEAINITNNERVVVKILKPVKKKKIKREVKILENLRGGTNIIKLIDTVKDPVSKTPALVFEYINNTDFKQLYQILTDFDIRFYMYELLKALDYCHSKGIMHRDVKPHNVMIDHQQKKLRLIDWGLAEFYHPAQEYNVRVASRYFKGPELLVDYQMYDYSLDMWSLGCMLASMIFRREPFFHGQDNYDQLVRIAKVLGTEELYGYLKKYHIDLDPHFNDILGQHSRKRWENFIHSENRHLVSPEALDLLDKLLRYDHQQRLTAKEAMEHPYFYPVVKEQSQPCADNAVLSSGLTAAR
The target of assay [4] is Calcium/calmodulin-dependent protein kinase type II subunit delta (Homo sapiens) (UniProt Q13557). As to conditions: at 10 µM.
The target in assay [5] is Maternal embryonic leucine zipper kinase (Homo sapiens) (UniProt Q14680). As to conditions: at 10 µM.
For assay [6], the target named is Platelet-derived growth factor receptor alpha (Homo sapiens, UniProt P16234). Kind of assay: Selectivity interaction (KinomeScan (DiscoverX)) EUB0000229b PDGFRA. Conditions: at 10 µM.
Assay [7] concerns the target Mitogen-activated protein kinase 8 (Homo sapiens, UniProt P45983). Description: Selectivity interaction (KinomeScan (DiscoverX)) EUB0000655a MAPK8. As to conditions: at 10 µM.
Assay [8] concerns the target Serine/threonine-protein kinase Chk2 (Homo sapiens) (UniProt O96017). Description: Selectivity interaction (KinomeScan (DiscoverX)) EUB0001619a CHEK2. Conditions: at 1 µM.
In assay [9] the target is Calcium/calmodulin-dependent protein kinase type II subunit beta (Homo sapiens) (UniProt Q13554). Description: Selectivity interaction (ActivX KiNativ screen (kinase selectivity in THP-1 cell lysates)) EUB0000639a CAMK2B. The class given is subcellular. As to conditions: lysate.
Chain of Calcium/calmodulin-dependent protein kinase type II subunit beta (Homo sapiens) (Q13554 whole entry): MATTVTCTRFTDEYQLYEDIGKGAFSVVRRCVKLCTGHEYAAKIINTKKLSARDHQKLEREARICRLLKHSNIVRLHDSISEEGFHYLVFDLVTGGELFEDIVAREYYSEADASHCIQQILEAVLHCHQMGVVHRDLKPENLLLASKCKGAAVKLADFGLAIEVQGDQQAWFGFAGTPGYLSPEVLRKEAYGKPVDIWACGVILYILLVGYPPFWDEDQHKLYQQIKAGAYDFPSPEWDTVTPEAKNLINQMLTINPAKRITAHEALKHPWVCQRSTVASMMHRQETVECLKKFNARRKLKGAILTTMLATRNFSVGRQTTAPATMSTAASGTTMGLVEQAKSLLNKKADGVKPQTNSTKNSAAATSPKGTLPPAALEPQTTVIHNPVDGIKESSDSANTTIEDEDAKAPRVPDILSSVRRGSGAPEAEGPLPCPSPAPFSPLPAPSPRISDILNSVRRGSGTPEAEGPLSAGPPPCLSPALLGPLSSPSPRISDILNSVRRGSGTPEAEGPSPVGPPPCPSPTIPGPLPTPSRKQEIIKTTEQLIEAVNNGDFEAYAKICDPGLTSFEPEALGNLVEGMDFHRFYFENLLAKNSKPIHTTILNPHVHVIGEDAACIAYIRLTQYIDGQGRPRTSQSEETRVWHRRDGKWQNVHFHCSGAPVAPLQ
Assay [10] deals with Ribosomal protein S6 kinase alpha-3 (Homo sapiens, UniProt P51812). Kind of assay: Selectivity interaction (ActivX KiNativ screen (kinase selectivity in THP-1 cell lysates)) EUB0000639a RPS6KA3. The class given is subcellular. Conditions: lysate, at 0.04 µM.
Chain of Ribosomal protein S6 kinase alpha-3 (P51812 whole entry): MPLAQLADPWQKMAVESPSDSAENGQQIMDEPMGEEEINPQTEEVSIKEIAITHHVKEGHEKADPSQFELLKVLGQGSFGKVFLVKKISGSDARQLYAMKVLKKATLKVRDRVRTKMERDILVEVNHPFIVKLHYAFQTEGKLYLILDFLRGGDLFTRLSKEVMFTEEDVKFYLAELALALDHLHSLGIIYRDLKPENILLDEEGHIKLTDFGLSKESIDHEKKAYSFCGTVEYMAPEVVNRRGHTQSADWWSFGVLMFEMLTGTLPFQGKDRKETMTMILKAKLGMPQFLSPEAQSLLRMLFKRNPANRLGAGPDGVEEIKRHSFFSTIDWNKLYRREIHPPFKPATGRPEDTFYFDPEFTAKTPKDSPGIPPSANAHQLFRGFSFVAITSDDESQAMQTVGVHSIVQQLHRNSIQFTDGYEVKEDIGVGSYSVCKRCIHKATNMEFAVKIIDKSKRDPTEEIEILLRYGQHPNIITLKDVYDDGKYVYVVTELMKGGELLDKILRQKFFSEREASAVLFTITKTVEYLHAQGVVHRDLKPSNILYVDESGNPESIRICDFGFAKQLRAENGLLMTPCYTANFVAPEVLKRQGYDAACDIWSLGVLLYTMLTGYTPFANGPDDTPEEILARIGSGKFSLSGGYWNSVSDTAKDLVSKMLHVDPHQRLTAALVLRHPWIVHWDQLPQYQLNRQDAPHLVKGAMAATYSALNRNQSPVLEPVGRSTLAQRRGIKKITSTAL
Assay [11] deals with Serine/threonine-protein kinase 26 (Homo sapiens, UniProt Q9P289). Kind of assay: Selectivity interaction (KinomeScan (DiscoverX)) EUB0001049a STK26. Conditions: at 1 µM.
In assay [12] the target is T1, Uncharacterized serine/threonine-protein kinase SBK3 (Homo sapiens) (UniProt P0C264).
T1 sequence (whole entry): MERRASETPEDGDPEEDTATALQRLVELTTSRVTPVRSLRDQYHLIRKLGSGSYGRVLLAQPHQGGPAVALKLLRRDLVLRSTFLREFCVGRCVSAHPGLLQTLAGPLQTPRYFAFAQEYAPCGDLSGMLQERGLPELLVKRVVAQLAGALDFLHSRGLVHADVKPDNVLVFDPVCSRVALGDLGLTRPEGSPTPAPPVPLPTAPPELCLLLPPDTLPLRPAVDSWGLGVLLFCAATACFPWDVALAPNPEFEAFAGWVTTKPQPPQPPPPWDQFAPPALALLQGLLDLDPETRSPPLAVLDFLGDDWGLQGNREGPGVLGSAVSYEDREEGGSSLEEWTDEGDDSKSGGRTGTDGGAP
Kind of assay: Selectivity interaction (KinomeScan (DiscoverX)) EUB0000695a SBK3. Conditions: at 100 nM.

The target of assay [13] is T2, Alpha-2A adrenergic receptor (Homo sapiens) (UniProt P08913).
T2 sequence (whole entry): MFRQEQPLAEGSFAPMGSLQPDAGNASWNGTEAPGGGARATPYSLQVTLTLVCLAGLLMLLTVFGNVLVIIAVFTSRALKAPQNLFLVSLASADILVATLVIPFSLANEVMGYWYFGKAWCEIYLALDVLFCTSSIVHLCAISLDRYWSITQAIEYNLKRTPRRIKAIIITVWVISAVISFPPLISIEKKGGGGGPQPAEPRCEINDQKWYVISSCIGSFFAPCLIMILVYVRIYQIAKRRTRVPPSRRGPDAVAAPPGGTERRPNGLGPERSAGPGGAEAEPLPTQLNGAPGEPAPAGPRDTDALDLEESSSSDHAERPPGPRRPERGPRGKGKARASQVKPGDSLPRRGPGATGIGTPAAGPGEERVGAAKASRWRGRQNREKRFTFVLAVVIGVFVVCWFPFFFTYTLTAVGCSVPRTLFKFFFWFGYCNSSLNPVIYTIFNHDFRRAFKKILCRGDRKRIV
Kind of assay: Selectivity interaction (Eurofins CEREP Diversity Profile (receptors and ion channels)) EUB0000279b ADRA2A. As to conditions: at 10 µM.

Assay [14] has as its target Nociceptin receptor (Homo sapiens) (UniProt P41146). Kind of assay: Selectivity interaction (Eurofins CEREP Diversity Profile (receptors and ion channels)) EUB0000279b OPRL1. Conditions: at 10 µM.
Assay [15] deals with Phosphatidylinositol 4,5-bisphosphate 3-kinase catalytic subunit alpha isoform (Homo sapiens), P42336 [C420R]. Kind of assay: (§2) Selectivity interaction (Ambit KINOMEscan) EUB0000092b PIK3CA. As to conditions: at 10 µM.
Chain of Phosphatidylinositol 4,5-bisphosphate 3-kinase catalytic subunit alpha isoform (Homo sapiens), P42336 [C420R] (P42336 whole entry C420R, canonical isoform): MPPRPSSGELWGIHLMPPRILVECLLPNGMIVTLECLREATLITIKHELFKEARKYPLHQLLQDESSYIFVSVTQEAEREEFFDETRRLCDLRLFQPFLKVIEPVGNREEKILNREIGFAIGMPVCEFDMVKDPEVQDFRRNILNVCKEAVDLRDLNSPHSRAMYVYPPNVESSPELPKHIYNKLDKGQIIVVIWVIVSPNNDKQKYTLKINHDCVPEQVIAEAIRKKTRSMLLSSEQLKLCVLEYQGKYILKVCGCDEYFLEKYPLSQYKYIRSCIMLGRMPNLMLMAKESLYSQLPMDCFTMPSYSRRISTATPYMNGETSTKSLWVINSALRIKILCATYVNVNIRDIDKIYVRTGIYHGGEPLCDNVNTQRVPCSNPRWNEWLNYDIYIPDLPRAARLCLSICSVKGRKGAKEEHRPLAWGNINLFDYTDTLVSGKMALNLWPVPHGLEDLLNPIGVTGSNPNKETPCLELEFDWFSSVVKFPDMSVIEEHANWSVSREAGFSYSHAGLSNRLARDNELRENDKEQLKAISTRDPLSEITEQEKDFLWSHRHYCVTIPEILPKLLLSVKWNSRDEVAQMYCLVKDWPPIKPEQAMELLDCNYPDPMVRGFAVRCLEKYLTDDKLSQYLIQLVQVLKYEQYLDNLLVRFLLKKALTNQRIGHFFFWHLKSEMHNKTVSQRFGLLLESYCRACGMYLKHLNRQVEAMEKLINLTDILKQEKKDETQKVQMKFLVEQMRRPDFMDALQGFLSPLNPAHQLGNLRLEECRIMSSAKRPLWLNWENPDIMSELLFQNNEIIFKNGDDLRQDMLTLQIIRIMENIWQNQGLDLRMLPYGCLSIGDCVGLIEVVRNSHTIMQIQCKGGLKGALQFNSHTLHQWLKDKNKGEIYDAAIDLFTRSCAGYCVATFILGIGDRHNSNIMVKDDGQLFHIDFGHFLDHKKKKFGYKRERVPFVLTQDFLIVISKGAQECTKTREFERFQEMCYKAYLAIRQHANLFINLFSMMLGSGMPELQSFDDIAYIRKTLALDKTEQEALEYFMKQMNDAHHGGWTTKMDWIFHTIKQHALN
For assay [16], the system named is Phosphatidylinositol 4,5-bisphosphate 3-kinase catalytic subunit alpha isoform (Homo sapiens), P42336 [E545K]. The assay is described as §2. Conditions: at 10 µM.
Chain of Phosphatidylinositol 4,5-bisphosphate 3-kinase catalytic subunit alpha isoform (Homo sapiens), P42336 [E545K] (P42336 whole entry E545K, canonical isoform): as the sequence (P42336 whole entry C420R, canonical isoform) above, with R420C, E545K counted along it
Assay [17] has as its target 1-phosphatidylinositol 3-phosphate 5-kinase (Homo sapiens) (UniProt Q9Y2I7). Description: Selectivity interaction (KinomeScan (DiscoverX)) EUB0001550a PIKFYVE. Conditions: at 1 µM.
Assay [18] addresses Ribosomal protein S6 kinase beta-1 (Homo sapiens, UniProt P23443). Description: Selectivity interaction (KinomeScan (DiscoverX)) EUB0000045b RPS6KB1.
Assay [19] concerns the target T3, Serine/threonine-protein kinase Nek11 (Homo sapiens) (UniProt Q8NG66).
T3 sequence (whole entry): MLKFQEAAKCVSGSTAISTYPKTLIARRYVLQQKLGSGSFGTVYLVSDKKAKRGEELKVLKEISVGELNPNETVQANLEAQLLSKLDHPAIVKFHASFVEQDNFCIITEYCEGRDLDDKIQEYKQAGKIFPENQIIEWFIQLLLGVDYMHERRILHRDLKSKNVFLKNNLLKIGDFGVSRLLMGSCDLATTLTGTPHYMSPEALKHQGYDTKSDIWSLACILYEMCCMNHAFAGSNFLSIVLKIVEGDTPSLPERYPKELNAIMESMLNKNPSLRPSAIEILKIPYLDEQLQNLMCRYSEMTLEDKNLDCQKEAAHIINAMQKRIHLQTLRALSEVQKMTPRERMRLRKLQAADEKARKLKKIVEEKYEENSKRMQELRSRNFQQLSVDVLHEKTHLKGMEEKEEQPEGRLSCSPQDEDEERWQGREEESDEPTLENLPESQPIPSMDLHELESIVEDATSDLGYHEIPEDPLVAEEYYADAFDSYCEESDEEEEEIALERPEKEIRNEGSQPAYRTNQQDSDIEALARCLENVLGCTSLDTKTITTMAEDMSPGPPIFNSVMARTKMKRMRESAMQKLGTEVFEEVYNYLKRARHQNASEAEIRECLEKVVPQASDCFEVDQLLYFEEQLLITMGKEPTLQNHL
Description: Selectivity interaction (KinomeScan (DiscoverX)) EUB0000618a NEK11. Conditions: at 10 µM.

Assay [20] addresses Dual specificity testis-specific protein kinase 1 (Homo sapiens) (UniProt Q15569). As to conditions: at 10 µM.

Chain of Ribosomal protein S6 kinase beta-1 (P23443 whole entry, looked up): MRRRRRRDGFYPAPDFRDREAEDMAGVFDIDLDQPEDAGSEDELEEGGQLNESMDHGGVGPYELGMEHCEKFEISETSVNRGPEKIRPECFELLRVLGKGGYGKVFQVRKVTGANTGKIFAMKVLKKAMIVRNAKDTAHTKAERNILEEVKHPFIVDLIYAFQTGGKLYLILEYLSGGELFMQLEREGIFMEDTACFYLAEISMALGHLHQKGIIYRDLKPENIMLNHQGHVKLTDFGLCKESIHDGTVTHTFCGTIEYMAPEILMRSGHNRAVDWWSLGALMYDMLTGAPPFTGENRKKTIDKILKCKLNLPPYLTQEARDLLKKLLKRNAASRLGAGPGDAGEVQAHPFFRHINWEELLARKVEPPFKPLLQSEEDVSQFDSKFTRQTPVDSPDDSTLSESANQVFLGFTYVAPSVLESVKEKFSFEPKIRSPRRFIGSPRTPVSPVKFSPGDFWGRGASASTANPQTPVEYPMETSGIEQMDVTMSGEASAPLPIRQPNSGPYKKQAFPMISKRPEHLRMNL
Chain of Dual specificity testis-specific protein kinase 1 (Homo sapiens) (Q15569 whole entry, looked up): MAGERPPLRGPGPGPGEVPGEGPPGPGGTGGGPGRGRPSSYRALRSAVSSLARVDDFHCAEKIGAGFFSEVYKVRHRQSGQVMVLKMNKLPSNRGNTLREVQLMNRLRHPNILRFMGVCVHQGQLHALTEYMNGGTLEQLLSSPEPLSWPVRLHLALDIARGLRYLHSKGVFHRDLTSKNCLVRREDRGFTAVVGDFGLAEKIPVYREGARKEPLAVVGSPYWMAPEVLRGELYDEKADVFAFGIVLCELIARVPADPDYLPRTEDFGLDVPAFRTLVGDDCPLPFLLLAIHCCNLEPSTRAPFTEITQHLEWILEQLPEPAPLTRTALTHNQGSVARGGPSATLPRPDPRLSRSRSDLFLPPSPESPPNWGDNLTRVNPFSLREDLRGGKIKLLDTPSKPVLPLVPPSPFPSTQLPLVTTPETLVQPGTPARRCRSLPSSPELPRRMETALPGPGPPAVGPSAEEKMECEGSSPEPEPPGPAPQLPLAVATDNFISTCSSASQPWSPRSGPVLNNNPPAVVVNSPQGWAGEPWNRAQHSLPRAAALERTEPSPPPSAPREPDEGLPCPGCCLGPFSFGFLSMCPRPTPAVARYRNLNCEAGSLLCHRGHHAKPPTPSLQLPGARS
Chain of Mitogen-activated protein kinase 8 (P45983 whole entry): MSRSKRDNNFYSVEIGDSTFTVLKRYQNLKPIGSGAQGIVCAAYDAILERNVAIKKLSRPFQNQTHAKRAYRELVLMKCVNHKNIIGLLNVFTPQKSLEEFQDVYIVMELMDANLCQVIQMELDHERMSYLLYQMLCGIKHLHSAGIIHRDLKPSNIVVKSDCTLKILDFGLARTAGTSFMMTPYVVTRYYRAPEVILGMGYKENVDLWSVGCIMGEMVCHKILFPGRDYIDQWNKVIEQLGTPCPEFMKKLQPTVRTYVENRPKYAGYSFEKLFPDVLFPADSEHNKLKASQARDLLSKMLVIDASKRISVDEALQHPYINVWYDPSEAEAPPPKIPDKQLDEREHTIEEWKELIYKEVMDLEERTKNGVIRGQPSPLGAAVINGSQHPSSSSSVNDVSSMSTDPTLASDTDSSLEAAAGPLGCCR
Chain of Nociceptin receptor (Homo sapiens) (P41146 whole entry, canonical isoform): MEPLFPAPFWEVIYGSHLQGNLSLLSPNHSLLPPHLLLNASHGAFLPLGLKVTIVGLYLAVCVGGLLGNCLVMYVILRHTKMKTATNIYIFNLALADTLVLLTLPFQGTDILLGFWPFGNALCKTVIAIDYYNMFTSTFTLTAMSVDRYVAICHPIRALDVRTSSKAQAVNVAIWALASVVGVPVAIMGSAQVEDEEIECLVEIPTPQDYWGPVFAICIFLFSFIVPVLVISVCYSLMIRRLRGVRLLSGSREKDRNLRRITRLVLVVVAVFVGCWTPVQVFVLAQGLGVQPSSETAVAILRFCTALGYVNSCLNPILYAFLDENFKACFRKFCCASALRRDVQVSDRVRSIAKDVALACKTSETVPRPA

Consider `Cn1cc(-n2cnc3c(NCc4nc5cc(Cl)c(Cl)cc5[nH]4)nc(N4CCOCC4)nc32)cn1`, for which the % of control in [1] is -4.02%; in assay [2], 46.2%.
Consider `CNC(=O)Nc1ccc(-c2nc(N3CC4CCC(C3)O4)c3cnn(C4CCC5(CC4)OCCO5)c3n2)cc1`, for which, in assay [3], the % of control stood at 100%.
`Cc1cc([C@@H](C)Nc2ccccc2C(=O)O)c2nc(N3CCOCC3)cc(=O)n2c1` [AZD-6482]: the figures for the % of control in [4] and in assay [5] were 95% and 100%, respectively.
Regarding `COc1cc(N(C)c2ccnc3ccc(C(F)(F)F)cc23)cc(OC)c1OC`, the % binding in assay [6] turned out to be 98%.
On to `CN(C)CCOc1ccc(-c2nc(-c3ccncc3)c(-c3ccc4c(c3)CC/C4=N\O)[nH]2)cc1`, for which the % of control in assay [7] was found to be 92%.
Regarding `N#Cc1cccc(-c2c[nH]c3ncnc(N4CCOCC4)c23)c1`, the % of control in assay [8] was 100%.
As for `CC[C@@H]1[C@H](F)C(=O)N[C@@H]1COc1nccc2cc(C(N)=O)c(OC)cc12` [ZIMLOVISERTIB], the % of inhibition in assay [9] (at 0.01 µM) came to 3.3%; in [9] (at 0.04 µM) it was 16.7%; in assay [9] (at 0.2 µM), 6.9%; in assay [9] (at 1 µM), 25.1%; in [9] (at 5 µM) it was 56.2%; in assay [10], 16.1%.
With `COc1cc(Nc2nc(C)cc(-c3cnn4nc(OC)ccc34)n2)cc(C(F)(F)F)c1`, in [11], the % of control was 85%.
For `Cc1cc(F)c(C(=O)Nc2cccc(-c3nncn3C(C)C)n2)cc1-n1cnc(C2CC2)c1`, the % of control in assay [12] was 85%.
In the case of `CC(=O)c1cc(-c2ccccc2OCC2CC2)c2ncccn12`, the figures for the % of control in [13] and in assay [14] were 100% and 88%, respectively.
`CCC(=O)N1CCN(c2ccc(-n3c(=O)ccc4cnc5ccc(-c6cnc7ccccc7c6)cc5c43)cc2C(F)(F)F)CC1`: the % of control was found to be 0.7% in assay [15] and 0.6% in [16].
Turning to `CN(C)CC#Cc1ccc2[nH]c3c(c2c1)-c1nc(N)ncc1CCC3`, the % of control in assay [17] came out at 0.1%.
As for `C=CC(=O)Nc1cc(-n2c(=O)ccc3cnc4ccc(-c5ccc(NS(C)(=O)=O)cc5)cc4c32)ccc1C`, the results for the % of control in assay [18] (at 1 µM) and in assay [18] (at 10 µM) were 100% and 76%, respectively.
Consider `O[C@H]1CC[C@H](Nc2ncc3nc(Nc4c(F)cc(F)cc4F)n([C@H]4CCOC4)c3n2)CC1`, for which the % of control in assay [19] is 90%.
In the case of `COCC(=O)NC/C=C/c1ccc2ncnc(Nc3ccc(Oc4ccc(C)nc4)c(C)c3)c2c1` [CP-724714], the % of control in assay [20] amounted to 75%.
